Literature values, collected in patent publication US6525095B1, “Propionate feed supplement” (New Mexico State University Technology Transfer Corporation, priority 2000, dated 2003).

System: swine
Conditions: for Average daily gain / Average feed intake per day / Total insulin: 200 ppb chromium in feed

Compound	Average daily gain	Average feed intake per day	Total insulin	Glucose clearance (during the insulin challenge)	Glucose half-life (during the insulin challenge)
CCC(=O)[O-].CCC(=O)[O-].CCC(=O)[O-].[Cr+3] [chromium (III) propionate]	decrease	decrease	remained unaffected	increased slightly more	decreased
chromium (III) tripicolinate	decrease	decrease	remained unaffected		decreased
